Target: T1, Human CatS (Homo sapiens, UniProt P25774)
T1 construct: made in house; host or cells: Sf9 insect cells (baculovirus vector pFB+HT)
Experiment: CatS inhibition of hydrolysis of fluorescent substrate Z-Val-Val-Arg-AFC
Format: biochemical
Details: apparent Ki, Morrison equation fit of initial rates; 10 μM Z-Val-Val-Arg-AFC, pH 5.0, 1.5 nM CatS; read-out: CatS Ki^app
Method: Human CatS was cloned into pFB+HT (from Stratagene clone), expressed in Sf9 cells, and purified over a Ni column. Fractions were concentrated and activated at pH 4.0 for 6 hr and then purified over a thiopropylsepharose column and eluted with 1×TBS, 500 mM NaCl, 1 mM EDTA, 25 mM DTT pH 7.6. Glycerol (50%) was added in a 1:1 (vol/vol) ratio (25% glycerol final) and protein was stored at −80° C. in 5 μL aliquots. […] The increase in fluorescence over time was monitored using λexcitation=400 nm and λemission=505 nm.
In equation 1, v is the initial rate measured in the presence of [I]0, the inhibitor concentration, using an enzyme concentration [E]0. v0 is the initial rate measured in the absence of inhibitor.

T1 sequence (P25774 115-331): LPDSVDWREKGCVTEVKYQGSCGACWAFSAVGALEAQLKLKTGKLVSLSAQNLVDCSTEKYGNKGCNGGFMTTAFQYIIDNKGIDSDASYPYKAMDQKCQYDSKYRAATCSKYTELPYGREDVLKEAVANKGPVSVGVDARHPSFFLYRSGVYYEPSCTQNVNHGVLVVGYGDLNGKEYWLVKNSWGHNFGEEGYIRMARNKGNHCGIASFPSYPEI

| Ki [nM] | Structure (SMILES) |
| --- | --- |
| 264 | CS(=O)(=O)N1CCc2c(c(-c3ccc(Cl)c(-c4cccc(C(=O)NCc5ncco5)c4)c3)nn2CCCN2CCC(N3CCCC3=O)CC2)C1 [Example 32, 2′-Chloro-5′-(5-methanesulfonyl-1-{3-[4-(2-oxo-pyrrolidin-1-yl)-piperidin-1-yl]-propyl}-4,5,6,7-tetrahydro-1H-pyrazolo[4,3-c]pyridin-3-yl)-biphenyl-3-carboxylic acid (oxazol-2-ylmethyl)-amide] |
| 163 | CS(=O)(=O)N1CCc2c(c(-c3ccc(Cl)c(-c4cccc(C(=O)NCCN5CCc6ccc(F)cc65)c4)c3)nn2CCCN2CCC(N3CCCC3=O)CC2)C1 [Example 33, 2′-Chloro-5′-(5-methanesulfonyl-1-{3-[4-(2-oxo-pyrrolidin-1-yl)-piperidin-1-yl]-propyl}-4,5,6,7-tetrahydro-1H-pyrazolo[4,3-c]pyridin-3-yl)-biphenyl-3-carboxylic acid [2-(6-fluoro-2,3-dihydro-indol-1-yl)-ethyl]-amide] |
| 72.3 | CS(=O)(=O)N1CCc2c(c(-c3ccc(Cl)c(-c4cccc(C(=O)NCc5nc6ccccc6s5)c4)c3)nn2CCCN2CCC(N3CCCC3=O)CC2)C1 [Example 34, 2′-Chloro-5′-(5-methanesulfonyl-1-{3-[4-(2-oxo-pyrrolidin-1-yl)-piperidin-1-yl]-propyl}-4,5,6,7-tetrahydro-1H-pyrazolo[4,3-c]pyridin-3-yl)-biphenyl-3-carboxylic acid (benzothiazol-2-ylmethyl)-amide] |
| 123 | Cc1ccc2[nH]c(C(C)NC(=O)c3cccc(-c4cc(-c5nn(CCCN6CCC(N7CCCC7=O)CC6)c6c5CN(S(C)(=O)=O)CC6)ccc4Cl)c3)nc2c1 (stereo not shown) [Example 35, 2′-Chloro-5′-(5-methanesulfonyl-1-{3-[4-(2-oxo-pyrrolidin-1-yl)-piperidin-1-yl]-propyl}-4,5,6,7-tetrahydro-1H-pyrazolo[4,3-c]pyridin-3-yl)-biphenyl-3-carboxylic acid [1-(5-methyl-1H-benzoimidazol-2-yl)-ethyl]-amide] |
| 736 | CC(=O)N1CCc2c(c(-c3ccc(Cl)c(-c4cccc(C(=O)N[C@@H](C)CN5CCc6cc(F)ccc65)c4)c3)nn2CCCN2CCCC2)C1 [Example 36, (S)-5′-[5-Acetyl-1-(3-pyrrolidin-1-yl-propyl)-4,5,6,7-tetrahydro-1H-pyrazolo[4,3-c]pyridin-3-yl]-2′-chloro-biphenyl-3-carboxylic acid [2-(5-fluoro-2,3-dihydro-indol-1-yl)-1-methyl-ethyl]-amide] |
| 38.5 | CC(=O)N1CCc2c(c(-c3ccc(Cl)c(-c4cccc(C(=O)N[C@@H](C)c5nc6cc(F)c(F)cc6[nH]5)c4)c3)nn2CCCN2CCCC2)C1 [Example 37, (S)-5′-[5-Acetyl-1-(3-pyrrolidin-1-yl-propyl)-4,5,6,7-tetrahydro-1H-pyrazolo[4,3-c]pyridin-3-yl]-2′-chloro-biphenyl-3-carboxylic acid [1-(5,6-difluoro-1H-benzoimidazol-2-yl)-ethyl]-amide] |
| 231 | CC(=O)N1CCc2c(c(-c3ccc(Cl)c(-c4cccc(C(=O)NCc5nc6ccccc6s5)c4)c3)nn2CCCN2CCCC2)C1 [Example 38, 5′-[5-Acetyl-1-(3-pyrrolidin-1-yl-propyl)-4,5,6,7-tetrahydro-1H-pyrazolo[4,3-c]pyridin-3-yl]-2′-chloro-biphenyl-3-carboxylic acid (benzothiazol-2-ylmethyl)-amide] |
| 37 | CC(=O)N1CCc2c(c(-c3ccc(Cl)c(-c4cccc(C(=O)NC(C)c5nc6cc(C)ccc6[nH]5)c4)c3)nn2CCCN2CCCC2)C1 (stereo not shown) [Example 39, 5′-[5-Acetyl-1-(3-pyrrolidin-1-yl-propyl)-4,5,6,7-tetrahydro-1H-pyrazolo[4,3-c]pyridin-3-yl]-2′-chloro-biphenyl-3-carboxylic acid [1-(5-methyl-1H-benzoimidazol-2-yl)-ethyl]-amide] |
| 228 | CC(=O)N1CCc2c(c(-c3ccc(Cl)c(-c4cccc(C(=O)NCCN5CCc6cc(C)ccc65)c4)c3)nn2CCCN2CCCC2)C1 [Example 40, 5′-[5-Acetyl-1-(3-pyrrolidin-1-yl-propyl)-4,5,6,7-tetrahydro-1H-pyrazolo[4,3-c]pyridin-3-yl]-2′-chloro-biphenyl-3-carboxylic acid [2-(5-methyl-2,3-dihydro-indol-1-yl)-ethyl]-amide] |
| 430 | COc1ccc(CNC(=O)c2cccc(-c3cc(-c4nn(CCCN5CCCC5)c5c4CN(C(C)=O)CC5)ccc3Cl)c2)cc1 [Example 41, 5′-[5-Acetyl-1-(3-pyrrolidin-1-yl-propyl)-4,5,6,7-tetrahydro-1H-pyrazolo[4,3-c]pyridin-3-yl]-2′-chloro-biphenyl-3-carboxylic acid 4-methoxy-benzylamide] |
| 41.7 | Cc1ccc(NCCNC(=O)c2cccc(-c3cc(-c4nn(CCCN5CCC(O)C5)c5c4CNCC5)ccc3Cl)c2)cc1C (stereo not shown) [Example 42, 2′-Chloro-5′-{1-[3-(3-hydroxy-pyrrolidin-1-yl)-propyl]-4,5,6,7-tetrahydro-1H-pyrazolo[4,3-c]pyridin-3-yl}-biphenyl-3-carboxylic acid [2-(3,4-dimethyl-phenylamino)-ethyl]-amide] |
| 48.5 | CC(C)c1ccc(NCCNC(=O)c2cccc(-c3cc(-c4nn(CCCN5CCC(O)C5)c5c4CNCC5)ccc3Cl)c2)cc1 (stereo not shown) [Example 43, 2′-Chloro-5′-{1-[3-(3-hydroxy-pyrrolidin-1-yl)-propyl]-4,5,6,7-tetrahydro-1H-pyrazolo[4,3-c]pyridin-3-yl}-biphenyl-3-carboxylic acid [2-(4-isopropyl-phenylamino)-ethyl]-amide] |
| 30.4 | COc1ccc(NCCNC(=O)c2cccc(-c3cc(-c4nn(CCCN5CCC(O)C5)c5c4CNCC5)ccc3Cl)c2)cc1 (stereo not shown) [Example 44, 2′-Chloro-5′-{1-[3-(3-hydroxy-pyrrolidin-1-yl)-propyl]-4,5,6,7-tetrahydro-1H-pyrazolo[4,3-c]pyridin-3-yl}-biphenyl-3-carboxylic acid [2-(4-methoxy-phenylamino)-ethyl]-amide] |
| 225 | CN(C)S(=O)(=O)c1cccc2c1N(CCNC(=O)c1cccc(-c3cc(-c4nn(CCCN5CCC(O)C5)c5c4CNCC5)ccc3Cl)c1)CC2 (stereo not shown) [Example 45, 2′-Chloro-5′-{1-[3-(3-hydroxy-pyrrolidin-1-yl)-propyl]-4,5,6,7-tetrahydro-1H-pyrazolo[4,3-c]pyridin-3-yl}-biphenyl-3-carboxylic acid [2-(7-dimethylsulfamoyl-2,3-dihydro-indol-1-yl)-ethyl]-amide] |
| 510 | CN(C)S(=O)(=O)c1ccc2c(c1)N(CCNC(=O)c1cccc(-c3cc(-c4nn(CCCN5CCC(O)C5)c5c4CNCC5)ccc3Cl)c1)CC2 (stereo not shown) [Example 46, 2′-Chloro-5′-{1-[3-(3-hydroxy-pyrrolidin-1-yl)-propyl]-4,5,6,7-tetrahydro-1H-pyrazolo[4,3-c]pyridin-3-yl}-biphenyl-3-carboxylic acid [2-(6-dimethylsulfamoyl-2,3-dihydro-indol-1-yl)-ethyl]-amide] |
| 53.7 | O=C(NCCNc1ccc(OCC2CCCC2)cc1)c1cccc(-c2cc(-c3nn(CCCN4CCC(O)C4)c4c3CNCC4)ccc2Cl)c1 (stereo not shown) [Example 47, 2′-Chloro-5′-{1-[3-(3-hydroxy-pyrrolidin-1-yl)-propyl]-4,5,6,7-tetrahydro-1H-pyrazolo[4,3-c]pyridin-3-yl}-biphenyl-3-carboxylic acid [2-(4-cyclopentylmethoxy-phenylamino)-ethyl]-amide] |

From US20080207683A1, “BIARYL-S[…]-PYRAZOLO-PYRIDINE MODULATORS OF CATHEPSIN S” (priority 2007, published 2008)
